Article PMC7316778 (Nature Communications, 2020)
Where “and” joins values, the source holds several entries; their conditions need not be identical. Identical values can stand only once. Like-named read-outs stand apart in the source and are kept apart here.

What was measured:
MINK1 = MINK1 (Homo sapiens, UniProt Q8N4C8); experiment: SelectScreen kinase assay
Experimental: (§1) Selectivity profiling assays were performed by the Invitrogen SelectScreen™ Services. […] The concentration of ATP was selected to be equal to the KM, unless indicated otherwise.

[1] = target: PIK3CA/PIK3R3 (p110 alpha/p55 gamma) (Homo sapiens, UniProt P42336); experiment: SelectScreen kinase assay; details: for Inhibition at 1 µM (%): PIK3CA/PIK3R3 (p110 alpha/p55 gamma), Adapta, ATP 10
PIK3CA/PIK3R3 (p110 alpha/p55 gamma), sequence (P42336 whole entry): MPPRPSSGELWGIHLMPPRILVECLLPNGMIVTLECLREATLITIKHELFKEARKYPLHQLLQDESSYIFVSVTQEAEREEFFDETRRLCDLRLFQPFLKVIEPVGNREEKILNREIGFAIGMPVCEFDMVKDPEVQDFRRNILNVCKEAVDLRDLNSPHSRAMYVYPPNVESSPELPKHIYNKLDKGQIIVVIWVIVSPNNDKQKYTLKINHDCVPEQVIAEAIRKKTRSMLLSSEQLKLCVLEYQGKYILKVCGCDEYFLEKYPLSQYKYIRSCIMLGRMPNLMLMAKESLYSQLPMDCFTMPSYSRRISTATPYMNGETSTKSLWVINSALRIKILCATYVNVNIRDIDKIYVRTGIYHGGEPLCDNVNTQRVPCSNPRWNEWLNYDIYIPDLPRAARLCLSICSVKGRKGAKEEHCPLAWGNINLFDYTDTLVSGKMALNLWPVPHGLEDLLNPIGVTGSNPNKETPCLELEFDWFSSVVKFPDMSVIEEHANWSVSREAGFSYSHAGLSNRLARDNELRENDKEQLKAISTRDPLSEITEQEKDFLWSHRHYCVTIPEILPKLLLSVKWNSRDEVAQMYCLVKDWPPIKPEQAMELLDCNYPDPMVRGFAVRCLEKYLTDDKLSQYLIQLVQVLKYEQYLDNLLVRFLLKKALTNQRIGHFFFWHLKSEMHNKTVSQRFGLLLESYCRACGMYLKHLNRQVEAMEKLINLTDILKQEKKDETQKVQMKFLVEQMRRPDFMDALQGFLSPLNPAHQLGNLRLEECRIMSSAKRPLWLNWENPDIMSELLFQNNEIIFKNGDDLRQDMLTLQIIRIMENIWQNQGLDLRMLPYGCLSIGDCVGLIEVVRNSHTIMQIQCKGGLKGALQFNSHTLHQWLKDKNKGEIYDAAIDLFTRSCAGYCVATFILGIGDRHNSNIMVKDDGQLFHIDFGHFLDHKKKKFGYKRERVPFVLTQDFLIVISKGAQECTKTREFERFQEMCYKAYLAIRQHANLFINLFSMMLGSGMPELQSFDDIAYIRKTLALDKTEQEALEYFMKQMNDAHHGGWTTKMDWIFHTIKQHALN
Experimental: as §1

PDK1 = target: T1, PDK1 (Homo sapiens, UniProt O15530); experiment: SelectScreen kinase assay
T1 sequence (O15530 1-556): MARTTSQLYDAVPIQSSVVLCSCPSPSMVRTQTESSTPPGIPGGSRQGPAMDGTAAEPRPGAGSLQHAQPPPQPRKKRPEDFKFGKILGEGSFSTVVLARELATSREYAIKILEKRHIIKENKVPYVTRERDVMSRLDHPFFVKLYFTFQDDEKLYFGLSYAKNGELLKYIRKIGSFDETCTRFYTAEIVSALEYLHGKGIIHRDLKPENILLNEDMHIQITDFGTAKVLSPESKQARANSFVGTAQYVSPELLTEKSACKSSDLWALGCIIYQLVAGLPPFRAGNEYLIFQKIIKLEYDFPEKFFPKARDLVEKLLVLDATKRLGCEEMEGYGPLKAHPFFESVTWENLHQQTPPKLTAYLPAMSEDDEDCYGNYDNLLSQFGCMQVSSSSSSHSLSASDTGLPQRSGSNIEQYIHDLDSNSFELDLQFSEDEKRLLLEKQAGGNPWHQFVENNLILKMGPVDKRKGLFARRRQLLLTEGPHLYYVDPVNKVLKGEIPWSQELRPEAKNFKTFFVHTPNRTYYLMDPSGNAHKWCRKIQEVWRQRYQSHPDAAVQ
Experimental: as §1

PRKACB (PRKAC beta) = PRKACB (PRKAC beta) (Homo sapiens, UniProt P22694); experiment: SelectScreen kinase assay; details: for Inhibition at 1 µM (%): PRKACB (PRKAC beta), LanthaScreen Binding
Experimental: as §1

TGFBR2 = TGFBR2 (Homo sapiens, UniProt P37173); experiment: SelectScreen kinase assay
TGFBR2, sequence (P37173 23-567): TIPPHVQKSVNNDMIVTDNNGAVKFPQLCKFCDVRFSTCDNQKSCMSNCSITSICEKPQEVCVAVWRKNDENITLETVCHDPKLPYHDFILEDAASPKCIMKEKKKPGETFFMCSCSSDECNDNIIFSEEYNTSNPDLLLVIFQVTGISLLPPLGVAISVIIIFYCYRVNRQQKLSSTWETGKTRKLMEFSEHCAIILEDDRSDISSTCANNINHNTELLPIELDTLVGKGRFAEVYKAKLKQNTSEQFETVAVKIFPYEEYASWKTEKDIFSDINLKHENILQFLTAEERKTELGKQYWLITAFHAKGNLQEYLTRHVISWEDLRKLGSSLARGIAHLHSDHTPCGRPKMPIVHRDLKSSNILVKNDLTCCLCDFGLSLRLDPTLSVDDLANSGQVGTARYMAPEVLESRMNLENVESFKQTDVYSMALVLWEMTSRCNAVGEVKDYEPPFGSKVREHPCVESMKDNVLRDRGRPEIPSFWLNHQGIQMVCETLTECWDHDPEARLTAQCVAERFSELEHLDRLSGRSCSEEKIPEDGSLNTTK
Experimental: as §1

FES^WT = target: T2, FES^WT (Homo sapiens, UniProt P07332); experiment: In vitro TR-FRET kinase assay; type: biochemical; details: TR-FRET assay, 5 µM ATP; n = 3; read-out: pIC50 FES^WT (converted)
T2 construct: human FES cDNA encoding residues 448–822 or human FER cDNA encoding residues 448–820 was amplified by PCR; made in house; host or cells: E. coli BL21(DE3), co-expressing YopH phosphatase
T2 sequence (P07332 448-822): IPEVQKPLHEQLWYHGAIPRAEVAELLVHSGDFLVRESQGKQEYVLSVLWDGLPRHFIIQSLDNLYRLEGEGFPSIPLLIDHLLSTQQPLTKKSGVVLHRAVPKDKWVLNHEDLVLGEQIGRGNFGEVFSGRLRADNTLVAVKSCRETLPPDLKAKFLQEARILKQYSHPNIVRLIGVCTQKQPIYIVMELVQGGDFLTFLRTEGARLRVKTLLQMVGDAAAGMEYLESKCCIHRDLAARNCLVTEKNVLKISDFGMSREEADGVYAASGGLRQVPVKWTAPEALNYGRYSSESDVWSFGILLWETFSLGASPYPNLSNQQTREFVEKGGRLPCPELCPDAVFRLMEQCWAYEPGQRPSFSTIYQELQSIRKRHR
Experimental: All measurements were performed in triplicate.

RPS6KA2 (RSK3) = RPS6KA2 (RSK3) (Homo sapiens, UniProt Q15349); experiment: SelectScreen kinase assay; details: 1 h, 1 μM WEL028, 1 h preincubation
Experimental: as §1

CDC7/DBF4 = CDC7/DBF4 (Homo sapiens, UniProt O00311); experiment: SelectScreen kinase assay
CDC7/DBF4, sequence (O00311 whole entry): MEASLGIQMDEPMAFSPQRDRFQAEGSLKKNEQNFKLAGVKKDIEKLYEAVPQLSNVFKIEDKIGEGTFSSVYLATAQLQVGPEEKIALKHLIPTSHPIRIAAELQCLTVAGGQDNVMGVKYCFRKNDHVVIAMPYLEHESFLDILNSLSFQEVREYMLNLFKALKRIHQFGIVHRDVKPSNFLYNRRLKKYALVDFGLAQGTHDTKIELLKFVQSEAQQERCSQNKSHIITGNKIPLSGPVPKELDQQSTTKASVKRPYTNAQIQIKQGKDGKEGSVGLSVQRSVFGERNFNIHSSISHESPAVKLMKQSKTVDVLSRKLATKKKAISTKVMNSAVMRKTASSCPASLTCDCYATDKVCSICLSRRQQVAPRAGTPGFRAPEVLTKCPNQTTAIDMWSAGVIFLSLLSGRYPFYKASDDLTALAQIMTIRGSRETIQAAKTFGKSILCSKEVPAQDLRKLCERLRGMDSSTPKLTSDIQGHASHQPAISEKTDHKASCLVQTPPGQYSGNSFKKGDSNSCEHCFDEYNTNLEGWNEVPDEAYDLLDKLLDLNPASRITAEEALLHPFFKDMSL
CDC7/DBF4, sequence (Q9UBU7 whole entry partner): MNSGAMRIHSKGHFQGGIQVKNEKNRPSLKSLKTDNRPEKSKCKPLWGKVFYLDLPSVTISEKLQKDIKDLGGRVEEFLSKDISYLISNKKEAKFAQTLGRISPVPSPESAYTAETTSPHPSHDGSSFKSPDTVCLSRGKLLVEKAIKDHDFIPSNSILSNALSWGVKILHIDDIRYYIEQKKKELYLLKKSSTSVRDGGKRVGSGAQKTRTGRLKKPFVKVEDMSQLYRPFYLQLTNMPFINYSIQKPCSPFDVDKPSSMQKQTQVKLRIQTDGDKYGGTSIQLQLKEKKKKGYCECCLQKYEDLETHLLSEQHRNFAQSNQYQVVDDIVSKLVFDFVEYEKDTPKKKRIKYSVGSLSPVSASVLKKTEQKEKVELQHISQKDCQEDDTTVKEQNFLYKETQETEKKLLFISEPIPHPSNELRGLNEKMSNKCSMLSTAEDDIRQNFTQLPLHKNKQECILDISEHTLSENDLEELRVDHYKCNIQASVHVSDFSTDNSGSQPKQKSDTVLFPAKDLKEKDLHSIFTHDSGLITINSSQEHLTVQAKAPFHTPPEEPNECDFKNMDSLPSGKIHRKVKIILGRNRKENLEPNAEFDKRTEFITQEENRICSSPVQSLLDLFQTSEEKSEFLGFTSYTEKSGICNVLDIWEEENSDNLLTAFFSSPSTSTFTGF
Experimental: as §1

MAP3K5 (ASK1) = target: T3, MAP3K5 (ASK1) (Homo sapiens, UniProt Q99683); experiment: SelectScreen kinase assay
T3 sequence (Q99683 1-1374): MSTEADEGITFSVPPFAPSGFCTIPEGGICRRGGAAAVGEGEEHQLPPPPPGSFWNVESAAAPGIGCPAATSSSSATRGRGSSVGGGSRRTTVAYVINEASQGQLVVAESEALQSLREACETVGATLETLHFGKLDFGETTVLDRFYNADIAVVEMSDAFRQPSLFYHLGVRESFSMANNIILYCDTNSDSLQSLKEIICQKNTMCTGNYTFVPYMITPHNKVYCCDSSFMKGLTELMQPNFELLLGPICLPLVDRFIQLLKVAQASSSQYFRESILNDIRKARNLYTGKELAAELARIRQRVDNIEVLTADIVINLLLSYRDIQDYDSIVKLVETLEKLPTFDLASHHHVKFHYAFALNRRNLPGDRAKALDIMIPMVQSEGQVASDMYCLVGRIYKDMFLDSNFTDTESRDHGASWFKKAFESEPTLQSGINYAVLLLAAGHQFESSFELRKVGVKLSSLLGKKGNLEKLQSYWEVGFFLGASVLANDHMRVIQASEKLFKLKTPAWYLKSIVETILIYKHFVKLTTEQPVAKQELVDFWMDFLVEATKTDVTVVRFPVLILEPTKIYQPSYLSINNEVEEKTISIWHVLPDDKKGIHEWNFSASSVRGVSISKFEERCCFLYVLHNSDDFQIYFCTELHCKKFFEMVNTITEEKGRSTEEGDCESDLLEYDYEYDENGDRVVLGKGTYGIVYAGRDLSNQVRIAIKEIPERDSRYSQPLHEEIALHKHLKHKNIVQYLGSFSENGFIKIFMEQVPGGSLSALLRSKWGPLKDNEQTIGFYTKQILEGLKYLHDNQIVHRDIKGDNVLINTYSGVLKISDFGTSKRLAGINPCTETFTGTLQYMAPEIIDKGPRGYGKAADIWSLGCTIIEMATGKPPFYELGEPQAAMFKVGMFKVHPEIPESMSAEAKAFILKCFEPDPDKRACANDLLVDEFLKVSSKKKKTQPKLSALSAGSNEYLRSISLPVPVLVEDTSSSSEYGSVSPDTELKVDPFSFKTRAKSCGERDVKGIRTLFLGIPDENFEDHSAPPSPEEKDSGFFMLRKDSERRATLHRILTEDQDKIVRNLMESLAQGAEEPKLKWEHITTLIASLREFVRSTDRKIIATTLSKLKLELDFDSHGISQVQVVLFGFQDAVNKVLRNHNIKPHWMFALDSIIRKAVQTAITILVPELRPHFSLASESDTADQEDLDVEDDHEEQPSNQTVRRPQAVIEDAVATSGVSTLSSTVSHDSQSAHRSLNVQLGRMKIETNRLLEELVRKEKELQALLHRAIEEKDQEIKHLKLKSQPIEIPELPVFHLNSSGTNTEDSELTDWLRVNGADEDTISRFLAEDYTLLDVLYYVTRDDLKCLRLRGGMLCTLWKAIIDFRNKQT
Experimental: as §1

[2] = 1 h, 1 μM WEL028, 1 h preincubation

MINK1, sequence (Q8N4C8 whole entry): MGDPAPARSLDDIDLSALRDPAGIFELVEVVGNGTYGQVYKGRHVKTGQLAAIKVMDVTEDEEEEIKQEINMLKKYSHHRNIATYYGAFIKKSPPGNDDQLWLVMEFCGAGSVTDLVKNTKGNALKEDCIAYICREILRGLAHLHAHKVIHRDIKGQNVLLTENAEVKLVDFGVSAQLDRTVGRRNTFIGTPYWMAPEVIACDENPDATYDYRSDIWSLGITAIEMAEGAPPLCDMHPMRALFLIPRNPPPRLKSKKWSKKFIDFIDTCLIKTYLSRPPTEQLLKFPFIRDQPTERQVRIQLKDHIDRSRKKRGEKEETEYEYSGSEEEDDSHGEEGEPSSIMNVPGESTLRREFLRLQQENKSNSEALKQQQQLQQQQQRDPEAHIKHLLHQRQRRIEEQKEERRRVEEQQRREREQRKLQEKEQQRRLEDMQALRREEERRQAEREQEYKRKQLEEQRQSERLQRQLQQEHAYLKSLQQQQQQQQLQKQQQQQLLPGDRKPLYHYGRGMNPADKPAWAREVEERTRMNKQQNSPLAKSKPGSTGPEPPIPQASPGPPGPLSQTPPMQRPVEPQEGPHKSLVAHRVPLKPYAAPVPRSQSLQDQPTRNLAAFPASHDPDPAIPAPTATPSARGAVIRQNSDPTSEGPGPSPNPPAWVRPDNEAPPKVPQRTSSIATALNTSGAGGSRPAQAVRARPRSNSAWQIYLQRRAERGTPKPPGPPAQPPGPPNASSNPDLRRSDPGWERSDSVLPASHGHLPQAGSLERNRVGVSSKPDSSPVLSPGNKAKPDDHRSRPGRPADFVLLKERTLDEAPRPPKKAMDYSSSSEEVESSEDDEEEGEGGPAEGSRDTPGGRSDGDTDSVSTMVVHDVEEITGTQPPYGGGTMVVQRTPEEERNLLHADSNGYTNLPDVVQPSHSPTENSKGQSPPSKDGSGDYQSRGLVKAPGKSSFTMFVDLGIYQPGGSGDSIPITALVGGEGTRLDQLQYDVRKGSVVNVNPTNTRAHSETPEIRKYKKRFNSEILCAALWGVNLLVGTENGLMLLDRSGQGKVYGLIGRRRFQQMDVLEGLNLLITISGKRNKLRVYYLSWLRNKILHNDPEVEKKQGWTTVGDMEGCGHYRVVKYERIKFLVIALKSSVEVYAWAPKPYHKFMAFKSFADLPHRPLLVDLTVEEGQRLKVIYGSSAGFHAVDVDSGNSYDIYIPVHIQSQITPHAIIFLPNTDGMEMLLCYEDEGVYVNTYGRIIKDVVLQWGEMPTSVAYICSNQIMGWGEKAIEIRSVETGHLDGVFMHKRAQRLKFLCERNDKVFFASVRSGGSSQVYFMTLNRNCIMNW

C#CCOc1ccc(Nc2ncc(Cl)c(Nc3ccccc3NC(=O)C=C)n2)c(OC)c1 [Compound 6]
inhibition at 1 µM (MINK1; [2]): 20%
Inhibition at 1 µM (%) (MINK1; MINK1, 1 µM, ZLYTE, ATP Km app, listed as WEL028, 1 µM): 21%
inhibition at 1 µM (MINK1; read-out: Inhibition at 1 µM (%), MINK1, 1 µM, ZLYTE, ATP Km app): 19%
inhibition at 1 µM [1, 2]: 1%
Inhibition at 1 µM (%) [1]: 2%
Inhibition at 1 µM (%) ([1]; listed as WEL028, 1 µM): -1%
inhibition at 1 µM (PDK1; [2]): 36%
Inhibition at 1 µM (%) (PDK1; PDK1, 1 µM, ZLYTE, ATP 100, listed as WEL028, 1 µM): 35%
inhibition at 1 µM (PDK1; read-out: Inhibition at 1 µM (%), PDK1, 1 µM, ZLYTE, ATP 100): 36%
inhibition at 1 µM (PRKACB (PRKAC beta); [2]): 8%
Inhibition at 1 µM (%) (PRKACB (PRKAC beta)): 12%
Inhibition at 1 µM (%) (PRKACB (PRKAC beta); listed as WEL028, 1 µM): 5%
Inhibition at 1 µM (%) (TGFBR2; 1 µM, LanthaScreen Binding, listed as WEL028, 1 µM): 11%
inhibition at 1 µM (TGFBR2; [2]): 14%
inhibition at 1 µM (TGFBR2; read-out: Inhibition at 1 µM (%), 1 µM, LanthaScreen Binding): 17%
IC50 (FES^WT): > 3 µM
inhibition at 1 µM (RPS6KA2 (RSK3)): 19%
inhibition at 1 µM (CDC7/DBF4; [2]): 3%
Inhibition at 1 µM (%) (CDC7/DBF4; CDC7/DBF4, 1 µM, LanthaScreen Binding, listed as WEL028, 1 µM): 6% and 1%
inhibition at 1 µM (MAP3K5 (ASK1); [2]): 6%
Inhibition at 1 µM (%) (MAP3K5 (ASK1); MAP3K5 (ASK1), 1 µM, LanthaScreen Binding, listed as WEL028, 1 µM): 8%
inhibition at 1 µM (MAP3K5 (ASK1); read-out: Inhibition at 1 µM (%), MAP3K5 (ASK1), 1 µM, LanthaScreen Binding): 5%
